Laboratory results taken from patent US20260158031A1, “AROMATIC HETEROCYCLIC COMPOUND, PHARMACEUTICAL COMPOSITION CONTAINING THE SAME, AND USE THEREOF” (HANG ZHOU YUHONG PHARMATECH CO., LTD., priority 2021, published 2026).

Molecular target: T1, JAK3 kinase (Homo sapiens, UniProt P52333)
T1 sequence (P52333 1-1124): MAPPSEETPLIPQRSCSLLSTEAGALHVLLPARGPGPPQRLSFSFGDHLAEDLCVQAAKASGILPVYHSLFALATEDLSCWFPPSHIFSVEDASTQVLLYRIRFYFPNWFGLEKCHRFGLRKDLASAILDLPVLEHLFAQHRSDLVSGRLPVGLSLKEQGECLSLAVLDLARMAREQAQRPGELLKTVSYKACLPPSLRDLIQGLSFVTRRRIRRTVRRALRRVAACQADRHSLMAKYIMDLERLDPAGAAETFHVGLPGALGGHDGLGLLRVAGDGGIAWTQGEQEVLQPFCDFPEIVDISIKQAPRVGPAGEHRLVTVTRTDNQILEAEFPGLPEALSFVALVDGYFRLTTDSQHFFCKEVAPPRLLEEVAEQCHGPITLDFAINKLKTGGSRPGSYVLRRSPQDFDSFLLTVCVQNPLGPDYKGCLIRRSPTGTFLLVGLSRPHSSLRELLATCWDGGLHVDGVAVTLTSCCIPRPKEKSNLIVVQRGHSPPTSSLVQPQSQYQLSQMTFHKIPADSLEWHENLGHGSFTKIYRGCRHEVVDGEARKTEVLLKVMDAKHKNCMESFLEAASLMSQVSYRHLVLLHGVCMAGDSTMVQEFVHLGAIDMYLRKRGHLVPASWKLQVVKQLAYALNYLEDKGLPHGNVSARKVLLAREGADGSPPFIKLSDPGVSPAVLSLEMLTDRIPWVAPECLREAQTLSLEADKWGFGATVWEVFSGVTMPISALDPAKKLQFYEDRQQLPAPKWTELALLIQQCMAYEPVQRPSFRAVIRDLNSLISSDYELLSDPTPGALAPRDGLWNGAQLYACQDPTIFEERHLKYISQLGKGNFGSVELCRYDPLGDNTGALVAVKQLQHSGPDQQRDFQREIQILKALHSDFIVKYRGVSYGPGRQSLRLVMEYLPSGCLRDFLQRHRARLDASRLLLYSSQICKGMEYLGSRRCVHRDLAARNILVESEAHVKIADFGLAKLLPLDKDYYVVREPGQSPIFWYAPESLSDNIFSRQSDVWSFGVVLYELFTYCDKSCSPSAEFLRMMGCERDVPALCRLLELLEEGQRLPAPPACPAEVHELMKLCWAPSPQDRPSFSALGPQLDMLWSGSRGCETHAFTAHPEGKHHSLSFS
Experiment: Mobility shift assay, in vitro JAK3 kinase inhibitory activity
Assay type: biochemical
Conditions: mobility shift assay, Example 136
Method: A Mobility shift assay was adopted to detect compounds to be tested (see list below) for in vitro inhibitory activity on the enzyme activity of JAK3 kinase.
The compound was dissolved in 100% DMSO to formulate a 10 mM stock solution, which was stored in a −20° C. refrigerator with protection from light.
The compounds were diluted with gradients into solutions with a final concentration of 100 times in a 384-well plate. Then 250 nL was transferred to a 384 reaction plate with Echo550 for later use. 250 nL of 100% DMSO was added into the negative control well and the positive control well respectively. • (3) A kinase solution with a final concentration of 2.5 times was formulated with the 1× Kinase buffer. • (4) The compound wells and the positive control wells were added with 10 μL of the kinase solution with the final concentration of 2.5 times respectively; the negative control wells were added with 10 μL of the 1× Kinase buffer. • (5) The wells were centrifuged at 1,000 rpm for 30 seconds, mixed well by shaking, and then incubated at room temperature for 10 minutes. • (6) A mixed solution of ATP and Kinase substrate 22 with a final concentration of 25/15 times was formulated with a 1× Kinase buffer. • (7) The compound wells, positive control wells and negative control wells of the 384 reaction plate were respectively added with 15 μL of a mixed solution of ATP and the substrate at the final concentration of 25/15 times to start the reaction. • (8) The 384-well plate was centrifuged at 1,000 rpm for 30 seconds, mixed well by shaking, and then incubated at room temperature for 30 minutes. • (9) 30 μL of a detection termination solution was added to stop the kinase reaction, centrifuged at 1,000 rpm for 30 seconds, and mixed well by shaking. • (10) The conversion rate was read with Caliper EZ Reader.
% Inhibition=(Conversion %_max−Conversion %_sample)/(Conversion %_max−Conversion %_min)×100 (1) Calculation Equation
Among them: Conversion %_sample was the conversion rate reading of the sample; Conversion %_min was the mean value of the negative control wells, representing the conversion rate reading of the wells without enzyme activity; Conversion % max was the mean value of the positive control wells, representing the conversion rate reading of the wells without compound inhibition; and % Inhibition represented the percentage inhibition rate.
• by taking the log value of concentration as the X axis and taking the percent inhibition rate as the Y axis, a dose-response curve is fitted by adopting the log (inhibitor) vs. response-Variable slope of the analysis software GraphPad Prism 5, so as to obtain the IC50 value of each compound on the enzyme activity. The calculation equation was Y=Bottom+ (Top−Bottom)/(1+10^((Log IC50−X)*HillSlope)).

Row | IC50 [nM] | SMILES
1 | 0.35 | C=CC(=O)N1CCc2c(c(-c3ccnc4[nH]ccc34)nn2C(C)=O)C1 [YZ001108]
2 | 7.1 | C=C(F)C(=O)N1Cc2[nH]nc(-c3ccnc4[nH]ccc34)c2C1 [YZ001077]
3 | 5.2 | C=C(F)C(=O)N1CCc2c(c(-c3ccnc4[nH]ccc34)nn2C(C)=O)C1 [YZ001109]
4 | 0.29 | [2H]C([2H])([2H])n1nc(-c2ccnc3[nH]ccc23)c2c1CCN(C(=O)C=C)C2 [YZ001103]
5 | 0.87 | C[C@H]1Cn2ncc(-c3ccnc4[nH]ccc34)c2CN1C(=O)/C=C/CN(C)C [YZ001022]
6 | 4.2 | C=C(F)C(=O)N1Cc2c(-c3ccnc4[nH]ccc34)cnn2[C@@H]2CCCC[C@@H]21 [YZ001056]
7 | 0.31 | C=CC(=O)N1Cc2c(-c3ccnc4[nH]ccc34)cnn2[C@H]2CCC[C@H]21 [YZ001057]
8 | 2.4 | C=CC(=O)N1Cc2c(-c3ncnc4[nH]ccc34)cnn2C[C@H]1C(C)C [YZ001030]
9 | 0.14 | C=CC(=O)N1CCn2ncc(-c3ccnc4[nH]ccc34)c2C1 [YZ001002]
10 | 0.19 | C=CC(=O)N1Cc2c(-c3ncnc4[nH]ccc34)cnn2[C@H](C)C1 [YZ001028]
11 | 4.5 | CN(C)C/C=C/C(=O)N1Cc2c(-c3ccnc4[nH]ccc34)cnn2[C@@H]2CCC[C@@H]21 [YZ001047]
12 | 1.4 | C=CC(=O)N1Cc2c(-c3ccnc4[nH]cc(C(C)=O)c34)cnn2C[C@@H]1C [YZ001063]
13 | 0.58 | C[C@H]1Cn2ncc(-c3ccnc4[nH]ccc34)c2CN1C(=O)/C=C/CN1CCCCC1 [YZ001023]
14 | 0.57 | C=CC(=O)N1Cc2c(-c3ccnc4[nH]ccc34)cnn2C[C@H]1CCS(C)(=O)=O [YZ001074]
15 | 7.8 | C[C@H]1CN(C(=O)/C=C/CN(C)C)Cc2c(-c3ncnc4[nH]ccc34)cnn21 [YZ001027]
16 | 0.48 | C=CC(=O)N1Cc2c(-c3ncnc4[nH]ccc34)cnn2C[C@H]1C [YZ001018]

Row | IC50 [nM] | SMILES
17 | 5.1 | C=CC(=O)N1Cc2c(-c3ccnc4[nH]ccc34)n[nH]c2[C@@H]1C [YZ001091]
18 | 0.19 | C=CC(=O)N1Cc2c(-c3ccnc4[nH]ccc34)cnn2[C@@H]2CCC[C@@H]21 [YZ001045]
19 | 0.28 | C=CC(=O)N1Cc2[nH]nc(-c3ccnc4[nH]ccc34)c2C1 [YZ001076]
20 | 0.43 | C=CC(=O)N1Cc2c(-c3ncnc4[nH]ccc34)cnn2[C@@H](C)C1 [YZ001026]
21 | 0.11 | C=CC(=O)N1Cc2c(-c3ccnc4[nH]ccc34)cnn2[C@@H]2CCCC[C@@H]21 [YZ001055]
22 | > 10000 | C[C@@H]1Cn2ncc(-c3ccnc4[nH]ccc34)c2CN1S(C)(=O)=O [YZ001011]
23 | 0.12 | C=CC(=O)N1Cc2c(-c3ncnc4[nH]ccc34)cnn2C[C@@H]1C(C)C [YZ001033]
24 | 1.5 | C=CC(=O)N1Cc2c(-c3ccnc4[nH]ccc34)nn(C)c2C[C@H]1C [YZ001083]
25 | 0.2 | C=CC(=O)N1Cc2c(-c3ccnc4[nH]ccc34)cnn2[C@H](C)C1 [YZ001099]
26 | 8.1 | C[C@@H]1Cn2ncc(-c3ccnc4[nH]ccc34)c2CN1C(=O)CCl [YZ001013]
27 | 1.4 | C=CC(=O)N1CCCn2ncc(-c3ccnc4[nH]ccc34)c2C1 [YZ001093]
28 | 3.8 | C=C(F)C(=O)N1Cc2c(-c3ccnc4[nH]ccc34)cnn2[C@H](C)C1 [YZ001100]
29 | 7 | C=CC(=O)N1CCCCn2ncc(-c3ccnc4[nH]ccc34)c2C1 [YZ001095]
30 | 6.93 | C=CC(=O)N1CCc2c(c(-c3ccnc4[nH]ccc34)nn2C(C)C)C1 [YZ001117]
31 | 0.15 | C=CC(=O)N1Cc2c(-c3ncnc4[nH]ccc34)cnn2C[C@@H]1C [YZ001024]
